Assays:
MCF-7 cells = assay: MTT cytotoxicity assay, MCF-7; type: cell-based, human; conditions: MCF7; human breast cancer cell line MCF-7, MTT method, 24 h treatment, mean ± SD; read-out: IC50 MCF-7
Description: (§1) The anticancer activities of compounds 17–24, 41–56 against MCF-7, MDA-MB-231 and hTERT-RPE1 cells were determined in vitro by an MTT assay. […] The data was calculated and presented as IC50 values in Table 1.
(§2) The cytotoxicities of the compounds were evaluated by the MTT assay, which is based on the conversion of MTT to formazan crystals by mitochondrial dehydrogenases. […] The medium was incubated with 20 μL of 5 mg/mL MTT solution for 3 h in a humidified incubator containing 5% CO2. The purple coloured formazan crystals formed in the wells were dissolved in DMSO and their absorbances were measured at 570 nm with a microplate reader. Cell viability was expressed as a percentage of the value in control cultures.

hTERT-RPE1 cells = assay: MTT cytotoxicity assay, hTERT-RPE1 normal cells; type: cell-based, human; conditions: normal human retinal pigment epithelial cell line hTERT-RPE1, MTT method, 24 h treatment, mean ± SD; read-out: IC50 hTERT-RPE1
Description: as §1, §2

MDA-MB-231 cells = assay: MTT cytotoxicity assay, MDA-MB-231; type: cell-based, human; conditions: human breast cancer cell line MDA-MB-231, MTT method, 24 h treatment, mean ± SD; read-out: IC50 MDA-MB-231
Description: The data was calculated and presented as IC50 values in Table 1.
as §2

| SMILES | IC50 (MCF-7 cells) [µM] | IC50 (hTERT-RPE1 cells) [µM] | IC50 (MDA-MB-231 cells) [µM] | melting point [°C] |
| --- | --- | --- | --- | --- |
| COC(=O)/C=C/c1ccc(OC(=O)[C@@]2(C)CC[C@]3(C)CC[C@]4(C)C(=CC(=O)[C@@H]5[C@@]6(C)CC[C@H](O)C(C)(C)[C@@H]6CC[C@]54C)[C@@H]3C2)cc1 [Compound 19, trans-4-Hydroxycinnamic acid methyl ester 3β-hydroxy-11-oxo-olean-12-en-30-oate] | 20.3 ± 1.47 | 29.6 ± 1.16 | 14.4 ± 0.52 | 202 to 205 |
| CCOC(=O)/C=C/c1ccc(OC(=O)[C@@]2(C)CC[C@]3(C)CC[C@]4(C)C(=CC(=O)[C@@H]5[C@@]6(C)CC[C@H](O)C(C)(C)[C@@H]6CC[C@]54C)[C@@H]3C2)c(OC)c1 [Compound 18, Ferulic acid ethyl ester 3β-hydroxy-11-oxo-olean-12-en-30-oate] | 22.5 ± 1.26 | 22.8 ± 0.97 | 8.14 ± 0.76 | 224 to 226 |

From paper PMC6274419, “Synthesis and Anticancer Activities of Glycyrrhetinic Acid Derivatives” (Molecules, 2016)
